How the values were obtained:
[1] = system: TNF-α protein; assay: TNF-α protein level (ELISA) in LPS-challenged RAW 264.7 cells; type: cell-based, mouse; design: key: NS=not significant; a “+” sign=anti-inflammatory or increased cell numbers; a “−” sign=cell toxicity or pro-inflammatory; details: LPS 30 or 60 ng/mL, 24 h
Outline: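 RAW 264.7 cells pretreated 1 h with compound in DMSO vehicle, then challenged with LPS (30 or 60 ng/mL) for 24 h at 37° C. Conditioned-media nitrite by Griess (520 nm, sodium nitrite standard curve, 1.5 μM cutoff) in μM; mouse TNF-α by ELISA as pg/ml or % change from control.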

[2] = system: fli1:EGFP zebrafish embryos (intersegmental vessel growth); assay: fli1:EGFP zebrafish embryo angiogenesis assay; type: in vivo; design: fli1:EGFP angiogenesis n (survived/tested): concentration or dose not given beside the values; details: for minimal effective concentration: Danio rerio, lowest concentration producing an effect, compounds not producing an effect shown at the highest evaluated concentration; for fli1:EGFP angiogenesis n (survived/tested): embryos alive after 24 hours of exposure
Outline: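 fli1:EGFP embryos grown 24 hpf, dechorionated and exposed to compound or vehicle over a range of concentrations for up to 24 h, with CPS49 as positive control. Imaged at 48 hpf for intersegmental vessel formation and growth; survival after 24 h exposure recorded, and values reflect the lowest concentration producing an effect.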

| SMILES | TNF-α ([1]; 1 μM) | TNF-α ([1]; 10 μM) | TNF-α ([1]; 30 μM) | TNF-α ([1]; 60 μM) | TNF-α ([1]; 100 μM) | minimal effective concentration [2] | fli1:EGFP angiogenesis n (survived/tested) [2] | TNF-α ([1]; 3 μM) |
| --- | --- | --- | --- | --- | --- | --- | --- | --- |
| O=C1CCC(N2C(=O)c3cccc([N+](=O)[O-])c3C2=O)C(=O)N1 (stereo not shown) [Compound 5] | NS | NS | NS | NS | NS | 7.5 µg/mL | 8/14 | – |
| O=C1NC(=S)CCC1N1C(=O)c2cccc([N+](=O)[O-])c2C1=O (stereo not shown) [Compound 7, 2-(2-Oxo-6-thioxo-3-piperidinyl)-4-nitro-1H-isoindole-1,3(2H)-dione] | NS | NS | NS | NS | + | 10 µg/mL | 28/33 | – |
| Nc1cccc2c1CN(C1CCC(=O)NC1=O)C2=S (stereo not shown) [Compound 29] | – | NS | NS | – | – | 10 µg/mL | 6/17 | NS |
| Nc1cccc2c1CN(C13CC4CC(CC(C4)C1)C3)C2=O [Compound 77, 2,3-Dihydro-4-amino-2-(tricyclo[3.3.1.1^3,7]dec-1-yl)-1H-isoindol-1-one] | NS | NS | NS | – | – | 10 µg/mL | 43/62 | – |
| CC(N1Cc2c(N)cccc2C1=O)C12CC3CC(CC(C3)C1)C2 (stereo not shown) [Compound 81] | NS | NS | + | – | – | 50 µg/mL | 7/8 | – |
| O=C1c2ccccc2CN1C12CC3CC(CC(O)(C3)C1)C2 [Compound 86, 2,3-Dihydro-2-(tricyclo[3.3.1.1^3,7]dec-1-hydroxy-3-yl)-1H-isoindol-1-one] | NS | + | + | – | – | 200 µg/mL | 4/12 | – |
